Assay results taken from US20250248970A1, “NOVEL SUBSTITUTED FLUORINATED N-PROPYL-PYRROLIDINE COMPOUNDS, PROCESSES FOR THEIR PREPARATION AND THERAPEUTIC USES THEREOF” (SANOFI, priority 2022, published 2025).

Legend:
[1] = tested on: CYP3A4; assay: CYP3A4 induction potential for ADME profile evaluation (CYP3A4 mRNA by RT-PCR in primary human hepatocytes); type: in vitro ADME; conditions: for CYP3A4 induction Emax (%): approximately 48 hours, 0.3-10 μM, relative to 10 μM rifampicin
Description: Such test is based, for example, on the quantification of CYP3A4 mRNA induction performed by RT-PCR analysis. Said % Emax may be calculated as detailed in the illustrative part under the following formula:
[formula] • ECompound: relative fold mRNA expression following treatment with test compound, • EPositive control: relative fold mRNA expression following reference inducer i.e., 10 μM rifampicin, • EVehicle control: relative fold mRNA expression following vehicle treatment i.e., 0.1% DMSO, and • E is the efficiency of the quantitative PCR.
Said test evaluates the potential induction effect of the tested compounds on CYP3A4 gene expression in primary cultures of human hepatocytes from one or two donors with established concentration-dependent response to the reference inducer, rifampicin.
Before seeding, cell viability was estimated using the Trypan blue dye exclusion test. Hepatocytes were seeded on collagen I-coated 96-well plates at a density of 70 000 cells/well in 100 μL of plating medium for at least 4 hours under a humidified atmosphere of CO2/air (5%/95%), at 37° C. After the cell attachment period, the plating medium was removed, and the hepatocytes were treated daily for 2 consecutive days (approximately 48 hours), with 100 μL per well of fresh culture medium containing either the vehicle control (0.1% DMSO) or the investigated compounds at four concentrations 0.3, 1, 3 and 10 μM, or rifampicin, the reference inducer at 10 μM. All incubations were performed in duplicates.
Ten mM stock solutions of the different compounds were diluted to obtain 0.3, 1 and 3 mM daughter solutions. The day of the experiment, stock solutions were diluted 1000-fold in the incubation/culture medium to achieve final concentrations of 0.3, 1, 3 and 10 μM.
After the 48-hour incubation period with the test compounds, the cell culture medium was removed, and the cells were lysed to release the RNA for CYP3A4 gene expression assessment. Quantification of CYP3A4 mRNA induction was performed by RT-PCR analysis.
Total RNA was extracted from hepatocytes using the King Fisher™ Flex Purification System with the MagMAX mirVana Total RNA Isolation kit (Thermo Fisher Scientific, USA). RNA was quantified by fluorimetry using the Quantifluor RNA System (Promega, USA) and cDNAs were synthesized from […] total RNA using the iScript Reverse Transcription Supermix for RT-qPCR from Biorad (France) at 42° C. for 30 min. cDNA samples were then diluted in water (1:5) and 5 μL of each sample was used for real-time PCR amplification by using the SYBR Green kit from Biorad (France). The following program was used: a denaturation step at 95° C. for 30 sec, and 40 cycles of PCR (denaturation, 95° C., 10 sec and annealing and extension, 58° C., 1 min). In all cases, the quality of the PCR product was assessed by monitoring a fusion step at the end of the run. Human forward and reverse primer sequences used were: 5′-CCT-GGC-ACC-CAG-CAC-AAT-3′ and 5′-GGG-CCG GAC-TCG-TCA-TAC-3′ for actin, 5′-CAC-AAA-CG-GAG-GCC-TTT-TG-3′ and 5′-ATC-CAT-GCT-GTA-GGC-CCC-AA-3′ for CYP3A4.
Cq (quantification cycle) values were determined using a multi-variable, non-linear regression model to individual well traces and then using this model an optimal Cq value was computed. Cq values are inversely proportional to the amount of target nucleic acid in the sample (i.e., lowest Cq level corresponds to the greatest amount of target nucleic acid in the sample). Cq of reference gene (in this study human actin) was also used as positive control of quantitative PCR.
The extent of induction or % of Emax, resulting from treatment with test compounds was calculated under the following formula: […]

[2] = molecular target: T1, ERα (Homo sapiens, UniProt P03372); assay: Estrogen receptor degradation activity (breast cancer cell ERα in cell western assay); type: cell-based; conditions: MCF7 cells; for % Degradation At 0.3 μM: 4 hours, % of ERα levels decrease relative to fulvestrant
T1 construct: host or cells: MCF7
T1 sequence (P03372 1-595): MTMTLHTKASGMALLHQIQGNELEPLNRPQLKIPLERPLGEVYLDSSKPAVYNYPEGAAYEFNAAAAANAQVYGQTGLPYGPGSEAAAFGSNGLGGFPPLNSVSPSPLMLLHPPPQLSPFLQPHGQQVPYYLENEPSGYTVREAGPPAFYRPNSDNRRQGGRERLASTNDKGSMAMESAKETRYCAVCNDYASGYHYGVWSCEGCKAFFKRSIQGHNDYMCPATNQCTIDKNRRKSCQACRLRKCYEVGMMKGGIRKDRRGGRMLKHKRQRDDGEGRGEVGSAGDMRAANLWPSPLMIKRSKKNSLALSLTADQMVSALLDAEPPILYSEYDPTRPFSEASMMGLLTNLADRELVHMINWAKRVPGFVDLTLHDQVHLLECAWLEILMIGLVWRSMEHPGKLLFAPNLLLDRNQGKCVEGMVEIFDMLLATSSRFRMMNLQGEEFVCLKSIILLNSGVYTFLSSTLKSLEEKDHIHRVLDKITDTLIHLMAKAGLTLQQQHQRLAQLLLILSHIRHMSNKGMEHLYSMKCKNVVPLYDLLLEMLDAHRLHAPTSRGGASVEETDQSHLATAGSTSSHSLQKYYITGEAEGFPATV
Description: Said test involves measuring the in vitro degradation activity of the compounds of the Table 1a.
The measurements of the degradation activities were made using a breast cancer cell ERα in cell western assay as described hereunder.
MCF7 cells (ATCC) were seeded in 384 wells microplate (collagen coated) at a concentration of 10000 cells/30 μL per well in red phenol free MEM alpha medium (invitrogen) containing 5% charcoal dextran striped FBS. The following day, 9 points serial 1:5 dilution of each compound was added to the cells in 2.5p L at final concentrations ranging from 0.3-0.0000018 μM (in table 2), or 0.1 μM for fulvestrant (using as positive control). At 4 hours post compound addition the cells were fixed by adding 25 μL of formalin (final concentration 5% formalin containing 0.1% triton) for 10 minutes at room temperature and then washed twice with PBS. Then, 50 μL of LI-COR blocking buffer containing 0.1% Triton was added to plate for 30 minutes at room temperature. LI-COR blocking buffer was removed and cells were incubated overnight at cold room with 50 μL anti-ER rabbit monoclonal antibody (Thermo scientific MA1-39540) diluted at 1:1000 in LI-COR blocking buffer containing 0.1% tween-20. Wells which were treated with blocking buffer but no antibody were used as background control. Wells were washed twice with PBS (0.1% tween-20) and incubated at 37° C. for 60 minutes in LI-COR (0.1% tween-20) containing goat anti-rabbit antibody Alexa 488 (1:1000) and Syto-64 a DNA dye (2 μM final concentration). Cells were then washed 3 times in PBS and scanned in ACUMEN explorer (TTP-Labtech). Integrated intensities in the green fluorescence and red fluorescence were measured to determine the levels of ERα and DNA respectively.
The degradation activity with respect to estrogen receptors in this test is given by the concentration which degrades 50% of the estrogen receptor (or IC50) in nM.
The % of ERα levels decrease were determined as follows: % inhibition=100*(1−(sample−fulvestrant: DMSO−fulvestrant)).

| Compound | CYP3A4 induction Emax (%) [1] | CYP3A4 induction (in words) ([1]; rating based on % Emax relative to rifampicin) | % Degradation At 0.3 μM [2] | degradation activity on estrogen receptors (in words) ([2]; tested at 0.3 μM) |
| --- | --- | --- | --- | --- |
| O=C(O)c1ccc2c(c1)CCCC(c1ccc(Cl)cc1Cl)=C2c1ccc(C[C@H]2CCN(CCCF)C2)cc1 [Compound 1, 8-(2,4-dichlorophenyl)-9-(4-((1-(3-fluoropropyl)pyrrolidin-3-yl)methyl)phenyl)-6,7-dihydro-5H-benzo[7]annulene-3-carboxylic acid, (S) Isomer] | 7% | no CYP3A4 induction | 85% |  |
| Cc1cc(F)ccc1C1=C(c2ccc(CC3CCN(CCC(F)F)C3)cc2)c2ccc(C(=O)O)cc2CCC1.Cl (single isomer, unassigned; isomer 1) [Compound 4, 9-(4-((1-(3,3-difluoropropyl)pyrrolidin-3-yl)methyl)phenyl)-8-(4-fluoro-2-methylphenyl)-6,7-dihydro-5H-benzo[7]annulene-3-carboxylic acid hydrochloride, Isomer 1] | 30% |  | 83% |  |
| Cc1c(C2=C(c3ccc(CC4CCN(CCCF)C4)cc3)c3ccc(C(=O)O)cc3CCC2)cccc1C(F)(F)F.Cl (single isomer, unassigned; isomer 1) [Compound 12, 9-(4-((1-(3-fluoropropyl)pyrrolidin-3-yl)methyl)phenyl)-8-(2-methyl-3-(trifluoromethyl)phenyl)-6,7-dihydro-5H-benzo[7]annulene-3-carboxylic acid hydrochloride, Isomer 1] | 34% |  | 90% |  |
| O=C(O)c1ccc2c(c1)CCCC(c1ccc(Cl)cc1Cl)=C2c1ccc(N[C@H]2CCN(CCCF)C2)cc1 [Compound C2, (S)-8-(2,4-Dichlorophenyl)-9-(4-((1-(3-fluoropropyl)pyrrolidin-3-yl)amino)phenyl)-6,7-dihydro-5H-benzo[7]annulene-3-carboxylic acid, reference compound] | 85% |  | 89% | significant degradation activity |
| Cl.O=C(O)c1ccc2c(c1)CCCC(c1ccc(F)cc1C(F)(F)F)=C2c1ccc(CC2CCN(CCC(F)F)C2)cc1 (single isomer, unassigned; isomer 1) [Compound 5, 9-(4-((1-(3,3-difluoropropyl)pyrrolidin-3-yl)methyl)phenyl)-8-(4-fluoro-2-(trifluoromethyl)phenyl)-6,7-dihydro-5H-benzo[7]annulene-3-carboxylic acid hydrochloride, Isomer 1] | 13% |  | 80% |  |
| CC1(C)CCC(C2=C(c3ccc(CC4CCN(CCCF)C4)cc3)c3ccc(C(=O)O)cc3CCC2)CC1.Cl (single isomer, unassigned; isomer 1) [Compound 3, 8-(4,4-dimethylcyclohexyl)-9-(4-((1-(3-fluoropropyl)pyrrolidin-3-yl)methyl)phenyl)-6,7-dihydro-5H-benzo[7]annulene-3-carboxylic acid, Isomer 1] | 8% |  | 85% |  |
| Cl.O=C(O)c1ccc2c(c1)CCCC(c1cccc(Cl)c1C(F)(F)F)=C2c1ccc(CC2CCN(CCCF)C2)cc1 (single isomer, unassigned; isomer 1) [Compound 13, 8-(3-chloro-2-(trifluoromethyl)phenyl)-9-(4-((1-(3-fluoropropyl)pyrrolidin-3-yl)methyl)phenyl)-6,7-dihydro-5H-benzo[7]annulene-3-carboxylic acid hydrochloride, Isomer 1] | 26% |  | 90% |  |
| O=C(O)c1ccc2c(c1)CCCC(c1ccc(Cl)cc1Cl)=C2c1ccc(O[C@H]2CCN(CCCF)C2)cc1 [(C1), reference compound] | 93% |  |  |  |
